Measured values from patent US20160120979A1, “METHOD OF APPLYING A COMPOSITION AND PHARMACEUTICAL COMPOSITION WITH A REGIMEN OF ADMINISTERING IT” (priority 2013, published 2016).

Assays:
Acinetobacter = assay: Experiment 12: replication on antibiotic agar after pulsed 400 nm irradiation; type: cell-based; details: 24 hours incubation; for C: Acinetobacter (no irradiation), replication: antibiotic 10 mg/l in MH agar; for D Acinetobacter (irradiation), replication: antibiotic 10 mg/l, 400 nm LED pulses 0.02 ms, 1 kHz, 10 minutes
Method: (§1) 15′000′000 multi-resistant bacteriae (0.050 ml of a McFarland of 1) were put on 40 mm diameter petri dishes. The petri dishes comprised MH agar with or without antibiotic.
(§2) […]. The LED power during 0.02 ms was measured to be 0.63 W on a Thorlabs power sensor with a surface area of 2.2×2.2 mm representing a power of 13 mW/cm^2.

Pseudomonas aeruginosa = assay: as above; type: cell-based; details: 24 hours incubation; for A: Pseudomonas aeruginosa (no irradiation), replication: antibiotic 10 mg/l in MH agar; for B: Pseudomonas aeruginosa (irradiation), replication: antibiotic 10 mg/l, 400 nm LED pulses 0.02 ms, 1 kHz, 10 minutes
Method: as §1, §2

[1] = system: Staphylococcus aureus MU500; assay: as above; type: cell-based; details: 24 hours incubation; for E: Staphylococcus aureus MU500 (no irradiation), replication: antibiotic 10 mg/l in MH agar; for F: Staphylococcus aureus MU500 (irradiation), replication: antibiotic 10 mg/l, 400 nm LED pulses 0.02 ms, 1 kHz, 10 minutes
Method: as §1
The LED power during 0.02 ms was measured to be 0.63 W on a Thorlabs power sensor with a surface area of 2.2×2.2 mm representing a power of 13 mW/cm^2.

[2] = system: multi-drug resistant MU 50 bacterial cells; assay: Experiment 1: killing of MU50 by antibiotic with/without riboflavin and UVA 365 nm (CFU); type: cell-based, Staphylococcus aureus
Method: The first experiment compares the effect of two antibiotics incubated with multi-drug resistant MU 50 bacterial cells accompanied by exposure to UVA light at 365 nm. […] Furthermore, the antibiotics were administered in the presence and absence of riboflavin, to test the free radical effect of riboflavin.
After addition of the antibiotic and optionally riboflavin to the bacterial samples they were incubated for 1 or for 30 minutes in Experiment 1A and for 30 minutes in Experiment 1B prior to the UV-A exposure at 365 nm with 9 mW/cm^2 for 10 minutes.
In Experiment 1B the added antibiotic was tobramycin at a concentration of 135 μg/ml.

[3] = ofloxacin 240 μg/ml, incubation 1 min, no riboflavin, no UVA
[4] = ofloxacin 240 μg/ml, incubation 1 min, no riboflavin, with UVA 365 nm 9 mW/cm^2 10 min
[5] = ofloxacin 240 μg/ml, incubation 1 min, with riboflavin, no UVA
[6] = ofloxacin 240 μg/ml, incubation 1 min, with riboflavin, with UVA 365 nm 9 mW/cm^2 10 min
[7] = ofloxacin 240 μg/ml, incubation 30 min, no riboflavin, no UVA
[8] = ofloxacin 240 μg/ml, incubation 30 min, no riboflavin, with UVA 365 nm 9 mW/cm^2 10 min
[9] = ofloxacin 240 μg/ml, incubation 30 min, with riboflavin, no UVA
[10] = ofloxacin 240 μg/ml, incubation 30 min, with riboflavin, with UVA 365 nm 9 mW/cm^2 10 min
[11] = tobramycin 135 μg/ml, incubation 30 min, no riboflavin, with UVA 365 nm 9 mW/cm^2 10 min
[12] = tobramycin 135 μg/ml, incubation 30 min, with riboflavin, with UVA 365 nm 9 mW/cm^2 10 min

COc1c(N2CCNC(C)C2)c(F)cc2c(=O)c(C(=O)O)cn(C3CC3)c12 (stereo not shown) [Gatifloxacin]
C: Acinetobacter (no irradiation), replication (Acinetobacter): R (Bacteria can replicate after the treatment)
D Acinetobacter (irradiation), replication (Acinetobacter): NR (No replication)
A: Pseudomonas aeruginosa (no irradiation), replication (Pseudomonas aeruginosa): R (Bacteria can replicate after the treatment)
B: Pseudomonas aeruginosa (irradiation), replication (Pseudomonas aeruginosa): NR (No replication)
E: Staphylococcus aureus MU500 (no irradiation), replication [1]: R (Bacteria can replicate after the treatment)
F: Staphylococcus aureus MU500 (irradiation), replication [1]: PR (Bacteria can replicate partially)

C[C@H]1COc2c(N3CCN(C)CC3)c(F)cc3c(=O)c(C(=O)O)cn1c23 [Levofloxacin]
C: Acinetobacter (no irradiation), replication (Acinetobacter): R (Bacteria can replicate after the treatment)
D Acinetobacter (irradiation), replication (Acinetobacter): NR (No replication)
A: Pseudomonas aeruginosa (no irradiation), replication (Pseudomonas aeruginosa): R (Bacteria can replicate after the treatment)
B: Pseudomonas aeruginosa (irradiation), replication (Pseudomonas aeruginosa): NR (No replication)
E: Staphylococcus aureus MU500 (no irradiation), replication [1]: R (Bacteria can replicate after the treatment)
F: Staphylococcus aureus MU500 (irradiation), replication [1]: PR (Bacteria can replicate partially)

CN(C)[C@@H]1C(O)=C(C(=O)NCNCCCC[C@H](N)C(=O)O)C(=O)[C@@]2(O)C(O)=C3C(=O)c4c(O)cccc4[C@@](C)(O)[C@H]3C[C@@H]12 [Lymecycline]
C: Acinetobacter (no irradiation), replication (Acinetobacter): R (Bacteria can replicate after the treatment)
D Acinetobacter (irradiation), replication (Acinetobacter): NR (No replication)
A: Pseudomonas aeruginosa (no irradiation), replication (Pseudomonas aeruginosa): R (Bacteria can replicate after the treatment)
B: Pseudomonas aeruginosa (irradiation), replication (Pseudomonas aeruginosa): NR (No replication)
E: Staphylococcus aureus MU500 (no irradiation), replication [1]: R (Bacteria can replicate after the treatment)
F: Staphylococcus aureus MU500 (irradiation), replication [1]: NR (No replication)

CN(C)c1ccc(O)c2c1C[C@H]1C[C@H]3[C@H](N(C)C)C(O)=C(C(N)=O)C(=O)[C@@]3(O)C(O)=C1C2=O [Minocycline]
C: Acinetobacter (no irradiation), replication (Acinetobacter): R (Bacteria can replicate after the treatment)
D Acinetobacter (irradiation), replication (Acinetobacter): NR (No replication)
A: Pseudomonas aeruginosa (no irradiation), replication (Pseudomonas aeruginosa): R (Bacteria can replicate after the treatment)
B: Pseudomonas aeruginosa (irradiation), replication (Pseudomonas aeruginosa): NR (No replication)
E: Staphylococcus aureus MU500 (no irradiation), replication [1]: R (Bacteria can replicate after the treatment)
F: Staphylococcus aureus MU500 (irradiation), replication [1]: NR (No replication)

CC1COc2c(N3CCN(C)CC3)c(F)cc3c(=O)c(C(=O)O)cn1c23 (stereo not shown) [Ofloxacin]
CFU first run [2, 3]: 505 CFU
CFU second run [2, 3]: 351 CFU
Killed first run [2, 3]: 12%
Killed second run [2, 3]: 14%
CFU first run [2, 4]: 9 CFU
CFU second run [2, 4]: 9 CFU
Killed first run [2, 4]: 98%
Killed second run [2, 4]: 98%
CFU first run [2, 5]: 574 CFU
CFU second run [2, 5]: 391 CFU
Killed first run [2, 5]: 0%
Killed second run [2, 5]: 4%
CFU first run [2, 6]: 144 CFU
CFU second run [2, 6]: 98 CFU
Killed first run [2, 6]: 75%
Killed second run [2, 6]: 76%
CFU first run [2, 7]: 490 CFU
CFU second run [2, 7]: 350 CFU
Killed first run [2, 7]: 15%
Killed second run [2, 7]: 14%
CFU first run [2, 8]: 7 CFU
CFU second run [2, 8]: 15 CFU
Killed first run [2, 8]: 99%
Killed second run [2, 8]: 96%
CFU first run [2, 9]: 570 CFU
CFU second run [2, 9]: 363 CFU
Killed first run [2, 9]: 1%
Killed second run [2, 9]: 11%
CFU first run [2, 10]: 171 CFU
CFU second run [2, 10]: 193 CFU
Killed first run [2, 10]: 70%
Killed second run [2, 10]: 53%
C: Acinetobacter (no irradiation), replication (Acinetobacter): R (Bacteria can replicate after the treatment)
D Acinetobacter (irradiation), replication (Acinetobacter): NR (No replication)
A: Pseudomonas aeruginosa (no irradiation), replication (Pseudomonas aeruginosa): R (Bacteria can replicate after the treatment)
B: Pseudomonas aeruginosa (irradiation), replication (Pseudomonas aeruginosa): NR (No replication)
E: Staphylococcus aureus MU500 (no irradiation), replication [1]: R (Bacteria can replicate after the treatment)
F: Staphylococcus aureus MU500 (irradiation), replication [1]: PR (Bacteria can replicate partially)

CN(C)[C@@H]1C(O)=C(C(N)=O)C(=O)[C@@]2(O)C(O)=C3C(=O)c4c(O)cccc4[C@@](C)(O)[C@H]3[C@H](O)[C@@H]12 [Oxytetracycline]
C: Acinetobacter (no irradiation), replication (Acinetobacter): R (Bacteria can replicate after the treatment)
D Acinetobacter (irradiation), replication (Acinetobacter): NR (No replication)
A: Pseudomonas aeruginosa (no irradiation), replication (Pseudomonas aeruginosa): R (Bacteria can replicate after the treatment)
B: Pseudomonas aeruginosa (irradiation), replication (Pseudomonas aeruginosa): NR (No replication)
E: Staphylococcus aureus MU500 (no irradiation), replication [1]: R (Bacteria can replicate after the treatment)
F: Staphylococcus aureus MU500 (irradiation), replication [1]: NR (No replication)

CN(C)c1cc(NC(=O)CNC(C)(C)C)c(O)c2c1C[C@H]1C[C@H]3[C@H](N(C)C)C(O)=C(C(N)=O)C(=O)[C@@]3(O)C(O)=C1C2=O [Tigecycline]
C: Acinetobacter (no irradiation), replication (Acinetobacter): R (Bacteria can replicate after the treatment)
D Acinetobacter (irradiation), replication (Acinetobacter): NR (No replication)
A: Pseudomonas aeruginosa (no irradiation), replication (Pseudomonas aeruginosa): R (Bacteria can replicate after the treatment)
B: Pseudomonas aeruginosa (irradiation), replication (Pseudomonas aeruginosa): NR (No replication)
E: Staphylococcus aureus MU500 (no irradiation), replication [1]: R (Bacteria can replicate after the treatment)
F: Staphylococcus aureus MU500 (irradiation), replication [1]: NR (No replication)

NC[C@H]1O[C@H](O[C@H]2[C@H](O)[C@@H](O[C@H]3O[C@H](CO)[C@@H](O)[C@H](N)[C@H]3O)[C@H](N)C[C@@H]2N)[C@H](N)C[C@@H]1O [Tobramycin]
CFU first run [2, 11]: 416 CFU
CFU second run [2, 11]: 481 CFU
Killed first run [2, 11]: 36%
Killed second run [2, 11]: 25%
CFU first run [2, 12]: 144 CFU
CFU second run [2, 12]: 159 CFU
Killed first run [2, 12]: 78%
Killed second run [2, 12]: 75%
C: Acinetobacter (no irradiation), replication (Acinetobacter): R (Bacteria can replicate after the treatment)
D Acinetobacter (irradiation), replication (Acinetobacter): R (Bacteria can replicate after the treatment)
A: Pseudomonas aeruginosa (no irradiation), replication (Pseudomonas aeruginosa): R (Bacteria can replicate after the treatment)
B: Pseudomonas aeruginosa (irradiation), replication (Pseudomonas aeruginosa): NR (No replication)
E: Staphylococcus aureus MU500 (no irradiation), replication [1]: R (Bacteria can replicate after the treatment)
F: Staphylococcus aureus MU500 (irradiation), replication [1]: R (Bacteria can replicate after the treatment)
